Data from paper PMC9653453, “Development of truncated elastin-like peptide analogues with improved temperature-response and self-assembling properties” (Scientific Reports, 2022).
Entries after “also recorded” stand apart in the source; their conditions may differ. Ends that are not written are not given here.

How the values were obtained:
[1] = Colorimetric (xylenol orange) determination of Zn^2+ removal by peptide coacervation; conditions: peptide 1.0 mg/mL, mean ± SE
Experimental: Colorimetric analyses of cadmium ions (Cd^2+) were carried out to evaluate the number of metal ions absorbed into the coacervation phase of the peptides by using a spectral photometer (JASCO V-660)[45]. […] The peptide solutions were incubated at 4 ℃ for 3, 6, or 12 h and then at 60 ℃ for 1.5 h to separate into the lower coacervation phase from the upper equilibrium solution phase. After incubation, the peptide solution was immediately centrifuged at room temperature for 2 min (6,200 rpm) to remove aggregates. An aliquot of 333 µL of supernatant of the equilibrium solution phase was added to 600 µL of acetate buffer solution (pH5.4) including 67 μM of XO and incubated for 10 min. Subsequently, the concentrations of Cd^2+ or Zn^2+ were determined by measuring the absorbance at 575 nm or 550 nm, respectively, which corresponds to the absorbance of the metal-XO complex. The amount of metal ions absorbed in the peptide solution was determined by the calibration line, which was prepared in the same manner by using a series of standard CdCl2 or ZnCl2 aqueous solutions of known concentrations. […] The statistical significance of the difference between the concentration of each metal ion in the supernatant and the control solution was determined using the Student's t-test. […]

[2] = Colorimetric (xylenol orange) determination of Cd^2+ removal by peptide coacervation; conditions: peptide 1.0 mg/mL; for Concentration of metal ion in the supernatant: Cd^2+ (0.236 mM CdCl2), Tris-HCl (50.0 mM Tris, 599 mM NaCl, pH 8.0), at least three measurements; for Concentration of metal ion in the supernatant / Removal efficiency: mean ± SE; for Removal efficiency: Cd^2+, versus control without peptide
Experimental: Colorimetric analyses of cadmium ions (Cd^2+) were carried out to evaluate the number of metal ions absorbed into the coacervation phase of the peptides by using a spectral photometer (JASCO V-660)[45]. […] The peptide solutions were incubated at 4 ℃ for 3, 6, or 12 h and then at 60 ℃ for 1.5 h to separate into the lower coacervation phase from the upper equilibrium solution phase. After incubation, the peptide solution was immediately centrifuged at room temperature for 2 min (6,200 rpm) to remove aggregates. An aliquot of 333 µL of supernatant of the equilibrium solution phase was added to 600 µL of acetate buffer solution (pH5.4) including 67 μM of XO and incubated for 10 min. Subsequently, the concentrations of Cd^2+ or Zn^2+ were determined by measuring the absorbance at 575 nm or 550 nm, respectively, which corresponds to the absorbance of the metal-XO complex. The amount of metal ions absorbed in the peptide solution was determined by the calibration line, which was prepared in the same manner by using a series of standard CdCl2 or ZnCl2 aqueous solutions of known concentrations. The homogeneity of variances between the concentration of each metal ion in the supernatant and the control solution was confirmed using the F test. The statistical significance of the difference between the concentration of each metal ion in the supernatant and the control solution was determined using the Student's t-test. Results were considered statistically significant at P values of ≤ 0.01.

[3] = Turbidity measurement of AADAAC-(FPGV)4 in Tris-HCl buffer pH 8.4 with or without CdCl2 / NaCl; format: physicochemical; conditions: for Tt: turbidity at 400 nm, mean ± SE, at least three measurements
Experimental: This hexapeptide sequence strongly and selectively binds to cadmium above pH 6.0, whereas this peptide releases metal ions below pH 4.0[51]. […] To assess the self-assembly property, turbidity measurements of AADAAC-(FPGV)4 were carried out under the same conditions as described above (Table 2 and Fig. 8). First, AADAAC-(FPGV)4 was dissolved to a concentration of 10 mg/mL in Tris–HCl buffer (pH 8.4) instead of phosphate buffer (pH 7.4), considering its use as a metal scavenging agent under basic conditions. Under these conditions, the Tt of AADAAC-(FPGV)4 was 41.6 ± 1.0 ℃ at a peptide concentration of 10 mg/mL. Since Tt tended to increase with the proportion of hydrophilic residues in the peptide, the self-assembling ability of AADAAC-(FPGV)4 was weakened compared with that of (FPGV)4, owing to the presence of hydrophilic Asp and Cys residues in the AADAAC sequence conjugated to (FPGV)4[34]. On the other hand, in the presence of Cd^2+, AADAAC-(FPGV)4 was insoluble in the solution. Therefore, the binding of the AADAAC sequence to Cd^2+ ions was thought to contribute to the enhanced self-assembly of AADAAC-(FPGV)4 in the presence of the metal ions. […] This characteristic of AADAAC-(FPGV)4 was similar to that of AADAAC-(FPGVG)4, which we previously reported. Subsequently, to verify whether this peptide can be used as a metal recovery agent at a lower peptide concentration, turbidity measurement using a low-concentration peptide solution (0.5 mg/mL, 0.236 mM) was performed. […] Thus, turbidity was measured in Tris–HCl buffer (50.0 mM Tris, 0.236 mM CdCl2, pH 8.4) containing 0.9% NaCl (154 mM, equivalent to saline), because it has been reported that salts such as NaCl increase the self-association and decrease the Tt of ELPs[52]. […] Owing to this drastic change in water solubility in the presence and absence of cadmium ions, AADAAC-(FPGV)4 was considered to be useful as a Cd^2+-selective metal-scavenging agent.
Turbidity measurements were performed in accordance with previous reports. The temperature-dependent self-assembling properties of the ELP analogues were evaluated using a JASCO V-660 spectral photometer (JASCO Co., Tokyo, Japan). Peptide sample solutions of different concentrations (2.0, 5.0, 10, 20, 30, or 50 mg/mL) were prepared by dissolving each peptide (except for AADAAC-(FPGV)n) in phosphate buffer (27.4 mM Na2HPO4, 17.8 mM NaH2PO4, pH 7.4). […] Turbidity was measured at 400 nm with increasing or decreasing temperature at a rate of 0.5 ℃/min from 5 ℃. The concentration of each sample solution was measured at least three times. […]

[4] = RP-UPLC retention time, used as measure of peptide hydrophobicity; format: physicochemical; conditions: RP-UPLC-MS; chromatographic
Experimental: Peptide synthesis was carried out using the conventional solid-phase peptide synthesis procedure (see supplementary information). The synthesized peptides were purified using RP-HPLC. The purity and molecular weight of each peptide were confirmed using RP-UPLC-MS (Table S1 and Fig. S1). […]
Retention times of each peptide were determined by RP-UPLC-MS.

[5] = Optical microscopy of peptide aggregates with image analysis of particle size; format: physicochemical; conditions: peptide 10 mg/mL, phosphate buffer pH 7.4
Experimental: The morphology of the coacervates of (FPGVG)4, (FPGV)4, and (FPG)4 was observed using optical microscopy. Light field observation was performed using a Leica DM IL LED microscope (Leica Microsystems CMS, Wetzlar, Germany) equipped with HI PLAN 40 × (Leica Microsystems CMS) and HC PLAN 10 × (Leica Microsystems CMS) objectives. Each peptide was dissolved in phosphate buffer (27.4 mM Na2HPO4, 17.8 mM NaH2PO4, at pH 7.4) to a concentration of 10 mg/mL and applied on a glass slide. Sample imaging was performed below and above the Tt of each peptide using a Thermo Plate TP-CHSQM (Tokai Hit Co., Ltd., Shizuoka, Japan). Sample images above Tt were taken 3 min after the sample reached the target temperature. The details of the image analysis is shown in the Supplementary Information file.
Size distribution of coacervates of ELP analogues formed above the Tt was analyzed using optical microscopy images of each peptide. Image analysis was performed using Image J/Fiji (NIH, USA), an open-source image analysis software.^2 Spatial calibration was carried out using […] in original images. The images of peptide coacervates were converted to a binary image via the menu command Image > Type > 8-bit. Using "analyze particle" command, the Feret diameters of the particles within the image were measured.

[6] = Dynamic light scattering (DLS) size distribution of coacervates; format: physicochemical; conditions: 10 to 50 ℃ in 10 ℃ steps; phosphate buffer pH 7.4; peptide concentrations as in Fig. 3 (2.0-50 mg/mL)
Experimental: The distribution of the particle size in the truncated ELP analogue solution was analyzed via DLS using Zetasizernano ZS (Malvern Instruments Ltd., Worcestershire, U.K.) in a measurement cell ZEN0112 (Malvern Instruments Ltd.)[33]. Peptide samples of different concentrations (2.0, 10, 20, 30, or 50 mg/mL) were prepared by dissolving each peptide in phosphate buffer (27.4 mM Na2HPO4, 17.8 mM NaH2PO4, pH 7.4) and filtered using the Millex-LG filter (pore size 0.2 µm, Merck Millipore) before measurement. DLS analysis was performed by increasing the temperature at 10 ℃ intervals from 10 to 50 ℃. Measurement duration was selected automatically. Parameter dataset “protein” (dataset: refractive index, 1.450; absorption, 0.001) was used as the material parameter, and parameter dataset “water” (dataset: refractive index, 1.330; viscosity, 0.8872) was chosen as the dispersant parameter. Attenuation was selected automatically. Each concentration was measured at least three times.

[7] = Time-lapse thioflavin T (ThT) fluorescence assay; format: physicochemical; conditions: peptide 10 mg/mL; phosphate buffer pH 7.4; 15, 30 and 45 ℃; excitation 446 nm, emission 483 nm
Experimental: Thiofalvin T (ThT) fluorescence measurements were performed for (FPGVG)5, (FPGVG)4, (FPGV)5, and (FPGV)4. Each peptide was dissolved in phosphate buffer (27.4 mM Na2HPO4, 17.8 mM NaH2PO4, pH 7.4) to different concentrations (1.0 mg/mL for (FPGV)5, 5.0 mg/mL for (FPGVG)5 and (FPGV)4, and 10 mg/mL for (FPGVG)4, respectively). Then, 1 mM of ThT aqueous solution was added to each sample at a final ThT concentration of 25 μM) followed by incubation for 1 h at 4 °C. The fluorescence intensity was measured using a FP-8500 spectrofluorometer (JASCO Co.). The excitation was set at 446 nm and the emission was recorded at 483 nm. The fluorescence intensities of samples were monitored at 15 °C for 30 min. Then, the sample temperature was raised to 30 °C and the measurements were performed for another 30 min. The same measurement was also carried out at 45 °C for (FPGV)4.

[8] = Turbidity measurement (phase transition temperature Tt, coacervation) in phosphate buffer pH 7.4; format: physicochemical; conditions: turbidity at 400 nm, heating 0.5 ℃/min from 5 ℃, mean ± SE, at least three measurements
Experimental: Turbidity measurements were performed in accordance with previous reports. The temperature-dependent self-assembling properties of the ELP analogues were evaluated using a JASCO V-660 spectral photometer (JASCO Co., Tokyo, Japan). Peptide sample solutions of different concentrations (2.0, 5.0, 10, 20, 30, or 50 mg/mL) were prepared by dissolving each peptide (except for AADAAC-(FPGV)n) in phosphate buffer (27.4 mM Na2HPO4, 17.8 mM NaH2PO4, pH 7.4). AADAAC-(FPGV)4 was dissolved in Tris–HCl buffer solution (50.0 mM Tris, at pH 8.4 or 50.0 mM Tris, 154 mM NaCl, at pH 8.4) to prepare sample solutions of a concentration of 0.5 or 10 mg/mL in the absence or presence of the equimolar amount of CdCl2. Turbidity was measured at 400 nm with increasing or decreasing temperature at a rate of 0.5 ℃/min from 5 ℃. The concentration of each sample solution was measured at least three times. The self-assembling property was described by the phase transition temperature (Tt), which is the temperature at which the turbidity of the solution reaches half the maximum value.

Row | Morphology of aggregates (optical microscopy, in words) [5] | Particle size of coacervates (optical microscopy image analysis, Feret diameter) ([5]; above Tt ((FPGVG)4 40 °C, (FPGV)4 25 °C), ImageJ/Fiji) | ThT fluorescent intensity versus temperature (in words) [7] | Tt, phase transition temperature ([8]; peptide 5.0 mg/mL, phosphate buffer pH 7.4, half-maximal turbidity) [°C] | Tt, phase transition temperature ([8]; peptide 10 mg/mL, phosphate buffer (27.4 mM Na2HPO4, 17.8 mM NaH2PO4, pH 7.4), Tt = temperature at half-maximal turbidity) [°C] | Substance | Concentration of metal ion in the supernatant ([1]; Zn^2+ (0.236 mM ZnCl2), incubation 12 h at 4 ℃ then 60 ℃ 1.5 h, Tris-HCl (50.0 mM Tris, 599 mM NaCl, pH 8.0), xylenol orange absorbance 550 nm, at least three measurements) [ppm] | Removal efficiency ([1]; Zn^2+, incubation 12 h, versus control without peptide) [%] | Concentration of metal ion in the supernatant ([2]; incubation 3 h at 4 ℃ then 60 ℃ 1.5 h, xylenol orange absorbance 575 nm) [ppm] | Concentration of metal ion in the supernatant ([2]; incubation 6 h at 4 ℃ then 60 ℃ 1.5 h) [ppm] | Concentration of metal ion in the supernatant ([2]; incubation 12 h at 4 ℃ then 60 ℃ 1.5 h) [ppm] | Removal efficiency ([2]; incubation 6 h) [%] | Removal efficiency ([2]; incubation 12 h) [%] | Cd^2+ concentration remaining in the supernatant ([2]; incubation for 12 h at 4 ℃ before heating) [%] | Tt ([3]; peptide 0.5 mg/mL (0.236 mM), Tris-HCl buffer (50.0 mM Tris, pH 8.4) with 154 mM NaCl and 0.236 mM CdCl2 (equimolar)) [°C] | Coacervation (in words) ([3]; peptide 0.5 mg/mL (0.236 mM), Tris-HCl buffer (50.0 mM Tris, pH 8.4) with 154 mM NaCl, absence of Cd^2+) | Tt / solubility in the presence of Cd^2+ ([3]; peptide 10 mg/mL (4.71 mM), Tris-HCl buffer (50.0 mM Tris, pH 8.4) with 4.71 mM CdCl2) | Tt ([3]; peptide 10 mg/mL (4.71 mM), Tris-HCl buffer (50.0 mM Tris, pH 8.4), no additive, 0.5 ℃/min) [°C] | UPLC retention time (measure of hydrophobicity) [4] [min] | Temperature-dependent particle size by DLS (in words) [6]
1 |  |  |  |  |  | AADAACFPGVFPGVFPGVFPGV-NH2 [AADAAC-(FPGV)4, H-AADAAC-(FPGV)4-NH2] | 4.4 ± 0.008 | 75.3 ± 0.001 | 6.8 ± 0.11 | 2.5 ± 0.49 | 1.3 ± 0.046 | 90.9 ± 0.018 | 95.1 ± 0.002 | 4.9 | 13.8 ± 0.1 | did not show coacervation | insoluble; also recorded: Not dissolved | 41.6 ± 1.0 | 2.496 | 
2 | spherical aggregates | about 1 µm | significantly elevated at 45 °C | 47.5 ± 0.3 | 33.8 ± 0.3 | FPGVGFPGVGFPGVGFPGVG-NH2 [(FPGVG)4, reference compound] |  |  |  |  |  |  |  |  |  |  |  |  | 2.251 | formed sub-micron particles below Tt, which grew into micrometer-sized particles above Tt
